Patent publication US8563542B2 (Cyclacel Limited, priority 2007, dated 2013)
Structures can show the parent of a compound that is named as a salt. Where two headings read alike, the source gives them in different places.

Experiments:
AA = molecular target: T1, AA (Homo sapiens, UniProt O14965); test: AA IC50 (Table 1; no method given); type: biochemical
T1 sequence (O14965 1-403): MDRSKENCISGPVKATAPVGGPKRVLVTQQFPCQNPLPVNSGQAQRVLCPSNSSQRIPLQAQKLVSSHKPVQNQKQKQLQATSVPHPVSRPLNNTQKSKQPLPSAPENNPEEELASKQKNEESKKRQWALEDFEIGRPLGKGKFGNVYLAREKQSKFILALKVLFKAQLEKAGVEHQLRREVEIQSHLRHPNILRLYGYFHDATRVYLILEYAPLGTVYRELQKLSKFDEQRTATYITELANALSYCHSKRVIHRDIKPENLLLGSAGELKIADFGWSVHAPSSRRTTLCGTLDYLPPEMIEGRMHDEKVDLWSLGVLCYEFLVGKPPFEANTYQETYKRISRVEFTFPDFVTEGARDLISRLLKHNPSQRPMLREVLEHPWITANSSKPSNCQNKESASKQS

PLK1 = PLK1 (Homo sapiens, UniProt P53350); test: PLK1 protein kinase assay (CDC25C phosphorylation, [γ-32P]-ATP); type: biochemical; settings: Table 2, PLK1 IC50; class symbols; read-out: PLK1 IC50
[1] = Table 2, AurA IC50, class symbols, read-out: AurA IC50

PLK1, sequence (P53350 whole entry): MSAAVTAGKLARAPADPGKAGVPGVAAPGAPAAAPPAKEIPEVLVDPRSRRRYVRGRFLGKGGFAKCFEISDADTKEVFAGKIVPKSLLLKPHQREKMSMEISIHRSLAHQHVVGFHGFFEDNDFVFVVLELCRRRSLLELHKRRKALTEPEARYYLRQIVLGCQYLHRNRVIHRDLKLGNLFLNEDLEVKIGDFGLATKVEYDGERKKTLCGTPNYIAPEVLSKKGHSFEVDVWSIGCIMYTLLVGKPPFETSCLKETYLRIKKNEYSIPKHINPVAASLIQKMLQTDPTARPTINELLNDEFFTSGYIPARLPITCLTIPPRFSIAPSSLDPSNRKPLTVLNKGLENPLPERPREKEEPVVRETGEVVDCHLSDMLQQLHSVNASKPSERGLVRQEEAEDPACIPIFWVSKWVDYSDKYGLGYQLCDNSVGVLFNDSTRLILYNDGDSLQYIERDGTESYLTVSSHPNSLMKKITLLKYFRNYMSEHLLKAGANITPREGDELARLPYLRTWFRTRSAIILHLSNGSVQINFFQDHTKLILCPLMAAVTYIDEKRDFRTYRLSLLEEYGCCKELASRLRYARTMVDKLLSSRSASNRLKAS

| SMILES | IC50 (AA; [1]) | IC50 (PLK1) | other results |
| --- | --- | --- | --- |
| COc1cc(C(=O)O)ccc1Nc1ncc2c(n1)N(C1CCCCC1)CCC(=O)N2 [compound 9, 4-(9-Cyclohexyl-6-oxo-6,7,8,9-tetrahydro-5H-pyrimido[4,5-b][1,4]diazepin-2-ylamino)-3-methoxy-benzoic acid] | – | – | IC50 (AA; Table 1, read-out: AA IC50): 1 to 10 µM |
| CN1C(=O)CCN(C(C)(C)C)c2nc(Nc3ccc(C(=O)O)cc3)ncc21 [compound 43, 4-(9-tert-Butyl-5-methyl-6-oxo-6,7,8,9-tetrahydro-5H-pyrimido[4,5-b][1,4]diazepin-2-ylamino)-benzoic acid] | < 1 µM | – | – |
| COc1cc(C(=O)NC2CCN(C)CC2)ccc1Nc1ncc2c(n1)N(Cc1ccc(OC)c(OC)c1)CC(C)C(=O)N2C (stereo not shown) [compound 44, 4-[9-(3,4-Dimethoxy-benzyl)-5,7-dimethyl-6-oxo-6,7,8,9-tetrahydro-5H-pyrimido[4,5-b][1,4]diazepin-2-ylamino]-3-methoxy-N-(1-methyl-piperidin-4-yl)-benzamide] | < 10 µM | – | – |
| COc1ccc(CN2CC(C)C(=O)N(C)c3cnc(Nc4ccc(C(=O)O)cc4)nc32)cc1OC (stereo not shown) [compound 45, 4-[9-(3,4-Dimethoxy-benzyl)-5,7-dimethyl-6-oxo-6,7,8,9-tetrahydro-5H-pyrimido[4,5-b][1,4]diazepin-2-ylamino]-benzoic acid] | < 10 µM | – | – |
| CN1CCC(NC(=O)c2ccc(Nc3ncc4c(n3)N(C3CCCC3)CCC(=O)N4C)cc2)CC1 [compound 64, 4-(9-Cyclopentyl-5-methyl-6-oxo-6,7,8,9-tetrahydro-5H-pyrimido[4,5-b][1,4]diazepin-2-ylamino)-N-(1-methyl-piperidin-4-yl)-benzamide] | < 0.1 µM | – | – |
| Cc1cc(Nc2ncc3c(n2)N(C2CCCC2)CCC(=O)N3C)ccc1Cl [compound 72, 2-(4-Chloro-3-methyl-phenylamino)-9-cyclopentyl-5-methyl-5,7,8,9-tetrahydro-pyrimido[4,5-b][1,4]diazepin-6-one] | < 1 µM | – | – |
| CN1C(=O)CCN(c2ccccc2F)c2nc(Nc3ccc4c(c3)CS(=O)(=O)C4)ncc21 [compound 73, 2-(2,2-Dioxo-2,3-dihydro-1H-2lambda*6*- benzo[c]thiophen-5-ylamino)-9-(2-fluoro-phenyl)-5-methyl-5,7,8,9-tetrahydro-pyrimido[4,5-b][1,4]diazepin-6-one] | < 0.1 µM | – | – |
| CN1C(=O)CCN(c2ccccc2)c2nc(Nc3ccc4c(c3)CS(=O)(=O)C4)ncc21 [compound 75, 2-(2,2-Dioxo-2,3-dihydro-1H-2lambda*6*- benzo[c]thiophen-5-ylamino)-5-methyl-9-phenyl-5,7,8,9-tetrahydro-pyrimido[4,5-b][1,4]diazepin-6-one] | < 0.1 µM | – | – |
| CCC(CC)N1CCC(=O)N(C)c2cnc(Nc3ccc4c(c3)CS(=O)(=O)C4)nc21 [compound 79, 2-(2,2-Dioxo-2,3-dihydro-1H-2lambda*6*- benzo[c]thiophen-5-ylamino)-9-(1-ethyl-propyl)-5-methyl-5,7,8,9-tetrahydro-pyrimido[4,5-b][1,4]diazepin-6-one] | < 0.1 µM | – | – |
| CC(C)C1CC(=O)N(C)c2cnc(Nc3ccc4c(c3)CS(=O)(=O)C4)nc2N1C1CCCC1 (stereo not shown) [compound 80, 9-Cyclopentyl-2-(2,2-dioxo-2,3-dihydro-1H-2lambda*6*-benzo[c]thiophen-5-ylamino)-8-isopropyl-5-methyl-5,7,8,9-tetrahydro-pyrimido[4,5-b][1,4]diazepin-6-one] | < 1 µM | – | – |
| CN1C(=O)CCN(C2CCOCC2)c2nc(Nc3ccc4c(c3)CS(=O)(=O)C4)ncc21 [compound 81, 2-(2,2-Dioxo-2,3-dihydro-1H-2lambda*6*- benzo[c]thiophen-5-ylamino)-5-methyl-9-(tetrahydro-pyran-4-yl)-5,7,8,9-tetrahydro-pyrimido[4,5-b][1,4]diazepin-6-one] | < 1 µM | – | – |
| CN1C(=O)CCN(Cc2ccccc2)c2nc(Nc3ccc4c(c3)CS(=O)(=O)C4)ncc21 [compound 82, 9-Benzyl-2-(2,2-dioxo-2,3-dihydro-1H-2lambda*6*-benzo[c]thiophen-5-ylamino)-5-methyl-5,7,8,9-tetrahydro-pyrimido[4,5-b][1,4]diazepin-6-one] | < 1 µM | – | – |
| CN1CCN(S(=O)(=O)c2ccc(Nc3ncc4c(n3)N(C3CCCC3)CCC(=O)N4C)cc2)CC1 [compound 105, 9-Cyclopentyl-5-methyl-2-[4-(4-methyl-piperazine-1-sulfonyl)-phenylamino]-5,7,8,9-tetrahydro-pyrimido[4,5-b][1,4]diazepin-6-one] | < 1 µM | – | – |
| COc1ccc(N2CCC(=O)N(C)c3cnc(Nc4ccc(C(=O)NC5CN6CCC5CC6)cc4OC)nc32)cc1 (stereo not shown) [compound 317, N-(1-Aza-bicyclo[2.2.2]oct-3-yl)-3-methoxy-4-[9-(4-methoxy-phenyl)-5-methyl-6-oxo-6,7,8,9-tetrahydro-5H-pyrimido[4,5-b][1,4]diazepin-2-ylamino]-benzamide] | – | < 1 µM | – |
| COc1ccc(N2CCC(=O)N(C)c3cnc(Nc4ccc(C(=O)NC5CC(C)(C)N(C)C(C)(C)C5)cc4OC)nc32)cc1 [compound 318] | – | < 1 µM | – |
| CCN(CC)CCNC(=O)c1ccc(Nc2ncc3c(n2)N(c2ccc(OC)cc2)CCC(=O)N3C)c(OC)c1 [compound 319, N-(2-Diethylamino-ethyl)-3-methoxy-4-[9-(4-methoxy-phenyl)-5-methyl-6-oxo-6,7,8,9-tetrahydro-5H-pyrimido[4,5-b][1,4]diazepin-2-ylamino]-benzamide] | – | < 10 µM | – |
| COc1cc(C(=O)NCC(=O)N2CCN(C(C)C)CC2)ccc1Nc1ncc2c(n1)N(C1CCCC1)CC1(CC1)C(=O)N2C [compound 321] | – | < 1 µM | – |
| COc1cc(C(=O)NC2CCN(Cc3ccccc3)C2)ccc1Nc1ncc2c(n1)N(C1CCCC1)CC1(CC1)C(=O)N2C (stereo not shown) [compound 322, N-(Benzyl-pyrrolidin-3-yl)-4-(9-cyclopentyl-5-methyl-6-oxo-6,7,8,9-tetrahydro-5H-spiro[pyrimido[4,5-b][1,4]diazepin-3,1′-cyclopropane]-2-ylamino)-3-methoxy-N-benzamide] | – | < 0.1 µM | – |
| CN1CCC(NC(=O)c2ccc(Nc3ncc4c(n3)N(C3CCCC3)CC3(CC3)C(=O)N4C)c(F)c2)CC1 [compound 323, 4-(9-Cyclopentyl-5-methyl-6-oxo-6,7,8,9-tetrahydro-5H-spiro[pyrimido[4,5-b][1,4]diazepin-3,1′-cyclopropane]-2-ylamino)-3-fluoro-N-(1-methyl-piperidin-4-yl)-benzamide] | – | < 0.1 µM | – |
| COc1cc(C(=O)NC2CCN(C)CC2)ccc1Nc1ncc2c(n1)N(C1CCCC1)CC1(CC1)C(=O)N2C [compound 341, 4-(9-Cyclopentyl-5-methyl-6-oxo-6,7,8,9-tetrahydro-5H-spiro[pyrimido[4,5-b][1,4]diazepin-3,1′-cyclopropane]-2-ylamino)-3-methoxy-N-(1-methyl-piperidin-4-yl)-benzamide mesylate] | – | < 0.1 µM | – |
| COc1cc(C(=O)NC2CCN(CC(=O)O)CC2)ccc1Nc1ncc2c(n1)N(C1CCCC1)CCC(=O)N2C [compound 343] | – | < 1 µM | – |
| COc1cc(C(=O)NC2CCN(C(C)C)CC2)ccc1Nc1ncc2c(n1)N(C1CCCC1)CCC(=O)N2C [compound 344, 4-(9-Cyclopentyl-5-methyl-6-oxo-6,7,8,9-tetrahydro-5H-pyrimido[4,5-b][1,4]diazepin-2-ylamino)-N-(1-isopropyl-piperidin-4-yl)-3-methoxy-benzamide] | – | < 0.1 µM | – |
